Measurements as given in patent US4091006A, “Esters of 3-hydroxyindone compounds” (priority 1975, dated 1978).

Columns and labels:
[1] = tested on: adults and nymphal stages of the two-spotted mite; assay: Mite Foliage Spray Test; type: in vivo, Tetranychus urticae (Koch); set-up: key: 1: no mortality; 3: an approximately 50% mortality; 5: 100% mortality; conditions: 4 days
Source text: (§1) The test procedures were as follows:
(§2) Compositions were rated on the basis of percent kill with a rating of 1 indicating no mortality; 3 signifying an approximately 50% mortality and 5 indicating 100% mortality at the indicated dosage.

[2] = tested on: egg of the two-spotted mite; assay: Mite Ovicide Test; type: in vivo, Tetranychus urticae (Koch); set-up: key to Mite Ova rating: 1: no mortality; 3: an approximately 50% mortality; 5: 100% mortality; conditions: for Mite Ova rating: spray on eggs, 4 days
Source text: as §1
The plants were allowed to dry thoroughly.
as §2

[3] = tested on: Perennial rye grass, crabgrass, red root pigweed, mustard; assay: Preliminary Herbicide Seed Germination Test; conditions: each rated 1 (no injury) to 5 (no seedlings emerged)
Source text: The thus-prepared stock suspension contained 0.5 percent by weight of compound. The test concentrations employed in the tests described hereinbelow were obtained by diluting the stock suspension with water. The test procedures were as follows:
The following seeds were used in this test:
Crabgrass -- Digitaria san-
Mustard -- Brassica pincea var.
Each of above mixtures is rolled separately in 5 gallon containers for approximately one-half hour on ball mill to insure uniform mixing of seeds and soil. For each compound four 3-inch pots are filled with soil to within 11/2 inches of top of pots. To 2 of these pots are added 70 cc. of Mixture I. To the remaining 2 pots are added 70 cc. of Mixture II. The seed-soil mixture is tamped firmly, and the pots are removed to the greenhouse and watered lightly. About 2 hours after planting, 25 milliliters of the test formulation were added to each of 2 pots for each soil-seed mixture; i.e., one replicate of each seed mixture per concentration. An equal volume of a water solution containing acetone and an emulsifier in the same concentration as the herbicidal mixture but without the candidate herbicide is also added to each of the soil-seed mixtures. These pots are used as check or control units. The test compounds are formulated by standard procedure of solution in acetone, addition of an emulsifier, and dilution with water. Tests were conducted on all compositions at low concentration (100 ppm.). Certain compositions were also tested at high concentration (1000 ppm). The pots were held in the greenhouse and watered lightly until results were taken. Ten to twelve days after application of chemical, injury is noted for each species by comparing treated vs. untreated pots. Ratings are made at both the high and the low concentrations (1000 ppm and 100 ppm) according to the following designations:
4 = few seedlings emerged and/or very severe stunting
3 = moderate reduction in stand and/or moderate stunting
2 = very slight reduction in stand and/or slight stunting
1 = no injury; seedlings appear no different with respect to stand or growth than untreated controls
Accordingly, the maximum rating for one test seed species tested at both high and low concentration is 10 and the maximum possible total preemergence rating is 40 (10 for each of the four test seed species). […] In some tests the crabgrass experiment was omitted. In these tests the maximum total rating for species tested at both high and low concentrations is 30 and 15 for species tested only at low concentrations.

[4] = rating/maximum 20: 100 ppm only, four species
[5] = rating/maximum 40: 100 and 1000 ppm, four species, 10-12 days
[6] = rating/maximum 30: 100 and 1000 ppm, crabgrass omitted
[7] = rating/maximum 15: 100 ppm only, crabgrass omitted

| Compound | Mite Adult rating [1] | Mite Ova rating [2] | Herbicide (total preemergence rating) [3, 4] | Herbicide (total preemergence rating) [3, 5] | Herbicide (total preemergence rating) [3, 6] | Herbicide (total preemergence rating) [3, 7] | Mite ova kill ([2]; 500 ppm) |
| --- | --- | --- | --- | --- | --- | --- | --- |
| CCCCN(C)C(=O)OC1=C(c2c(C)cc(C)cc2C)C(=O)c2ccccc21 [2-(2',4',6'-Trimethylphenyl)-3-(N-butyl-N-methylcarbamoyloxy)indone] | 1 | 1 | 4/20 | – | – | – | – |
| CCCCCCCCCCCC(=O)OC1=C(c2ccc(C)cc2C)C(=O)c2ccccc21 [2-(2',4'-Dimethylphenyl)-3-(lauroyloxy)indone] | 5 (100% mortality) | 5 (100% mortality) | 14/20 | – | – | – | – |
| 3-(Acetoxy)-4(7)-methyl-2-(2',6'-dichlorophenyl)indone | 5 (100% mortality) | 5 (100% mortality) | – | 37/40 | – | – | – |
| Cc1cc(C)c(C2=C(OC(=O)c3ccc(Cl)cc3)c3ccccc3C2=O)c(C)c1 [3-(4-Chlorobenzoyloxy)-2-(2',4',6'-trimethylphenyl)indone] | 5 (100% mortality) | 5 (100% mortality) | – | – | 24/30 | – | – |
| Cc1ccc(C(=O)OC2=C(c3c(Cl)cccc3Cl)C(=O)c3ccccc32)cc1 [3-(4-Methylbenzoyloxy)-2-(2',6'-dichlorophenyl)indone] | 5 (100% mortality) | 5 (100% mortality) | – | – | 22/30 | – | – |
| CCCCCCCCOC(=O)OC1=C(c2c(C)cc(C)cc2C)C(=O)c2ccccc21 [2-(2',4',6'-Trimethylphenyl)-3-(octyloxycarbonyloxy)indone] | 5 (100% mortality) | 5 (100% mortality) | 16/20 | – | – | – | – |
| CCCCC(=O)OC1=C(c2c(C)cc(C)cc2C)C(=O)c2ccccc21 [2-(2',4',6'-Trimethylphenyl)-3-(pentanoyloxy)indone] | 5 (100% mortality) | 5 (100% mortality) | – | – | – | 15/15 | – |
| CCc1ccccc1C1=C(OC(=O)C(C)(C)C)c2ccccc2C1=O [2-(2'-Ethylphenyl)-3-pivaloyloxyindone] | 1 | 1 | 4/20 | – | – | – | – |
| Cc1ccc(C(=O)OC2=C(c3c(C)cc(C)cc3C)C(=O)c3ccccc32)c(C)c1 [3-(2,4-Dimethylbenzoyloxy)-2-(2',4',6'-trimethylphenyl)indone] | 1 | 5 (100% mortality) | – | – | – | 11/15 | – |
| Cc1cccc(C)c1C(=O)OC1=C(c2c(Cl)cccc2Cl)C(=O)c2ccccc21 [3-(2,6-Dimethylbenzoyloxy)-2-(2',6'-dichlorophenyl)indone] | 1 | 1 | 4/20 | – | – | – | About 20% |
| CCCCCCCCCCCCCCCCCC(=O)OC1=C(c2ccccc2Cl)C(=O)c2ccccc21 [2-(2'-Chlorophenyl)-3-(stearoyloxy)indone] | 1 | 5 (100% mortality) | 4/20 | – | – | – | – |
| CCCCCCCCCCCC(=O)OC1=C(c2c(C)cc(C)cc2C)C(=O)c2ccccc21 [2-(2',4',6'-Trimethylphenyl)-3-(dodecanoyloxy)indone] | 5 (100% mortality) | 5 (100% mortality) | 17/20 | – | – | – | – |
| 2-(2'-Methoxyphenyl)-3-(neodecanoyloxy)indone | 1 | 1 | 4/20 | – | – | – | – |
| Cc1cc(C)c(C2=C(OC(=O)c3ccccc3C)c3ccccc3C2=O)c(C)c1 [3-(2-Methylbenzoyloxy)-2-(2',4',6'-trimethylphenyl)indone] | 5 (100% mortality) | 5 (100% mortality) | – | – | 19/30 | – | – |
| CC(C)(C)C(=O)OC1=C(c2ccccc2Cl)C(=O)c2ccccc21 [2-(2'-Chlorophenyl)-3-(pivaloyloxy)indone] | 5 (100% mortality) | 5 (100% mortality) | – | 18/40 | – | – | – |
| O=C(OC1=C(c2c(Cl)cccc2Cl)C(=O)c2ccccc21)c1ccc(Cl)c(Cl)c1 [3-(3,4-Dichlorobenzoyloxy)-2-(2',6'-dichlorophenyl)indone] | 5 (100% mortality) | 5 (100% mortality) | – | 29/40 | – | – | – |
| CCc1cccc(C)c1C1=C(OC(=O)C(C)(C)C)c2ccccc2C1=O [2-(2'-Ethyl-6'-methylphenyl)-3-(pivaloyloxy)indone] | 5 (100% mortality) | 5 (100% mortality) | – | – | – | 14/15 | – |
| Cc1cc(C)c(C2=C(OC(=O)c3cccc([N+](=O)[O-])c3)c3ccccc3C2=O)c(C)c1 [3-(3-Nitrobenzoyloxy)-2-(2',4',6'-trimethylphenyl)indone] | 5 (100% mortality) | 5 (100% mortality) | – | – | 28/30 | – | – |
| O=C(OC1=C(c2c(Cl)cccc2Cl)C(=O)c2ccccc21)c1ccc(Cl)cc1Cl [3-(2,4-Dichlorobenzoyloxy)-2-(2',6'-dichlorophenyl)indone] | 5 (100% mortality) | 5 (100% mortality) | – | 28/40 | – | – | – |
| Cc1cc(C)c(C2=C(OC(=O)c3ccc([N+](=O)[O-])cc3)c3ccccc3C2=O)c(C)c1 [3-(4-Nitrobenzoyloxy)-2-(2',4',6'-trimethylphenyl)indone] | 5 (100% mortality) | 5 (100% mortality) | – | – | 26/30 | – | – |
| Cc1cc(C)c(C2=C(OC(=O)COc3ccc(Cl)cc3Cl)c3ccccc3C2=O)c(C)c1 [2-(2',4',6'-Trimethylphenyl)-3-(2,4-dichlorophenoxyacetoxy)indone] | 5 (100% mortality) | 5 (100% mortality) | 20/20 | – | – | – | – |
| CCC(CC)C(=O)OC1=C(c2ccc(C(C)C)cc2)C(=O)c2ccccc21 [3-(2-ethylbutanoyloxy)-2-(4'-isopropylphenyl)indone] | 1 | 1 | 4/20 | – | – | – | – |
| Cc1cc(C)c(C2=C(OC(=O)N3CCOCC3)c3ccccc3C2=O)c(C)c1 [2-(2',4',6'-Trimethylphenyl)-3-(4-(morpholino)carbonyloxy)indone] | 3 (an approximately 50% mortality) | 5 (100% mortality) | 4/20 | – | – | – | – |
| CC(C)c1ccc(C2=C(OC(=O)C(C)(C)C)c3ccccc3C2=O)cc1 [2-(4'-isopropylphenyl)-3-(pivaloyloxy)indone] | 1 | 1 | 4/20 | – | – | – | – |
| CC(C)(C)C(=O)OC1=C(c2ccc(Cl)cc2)C(=O)c2ccccc21 [2-(4'-Chlorophenyl)-3-(pivaloyloxy)indone] | 1 | 1 | 4/20 | – | – | – | – |
| Cc1cc(C)c(C2=C(OC(=O)c3ccccc3)c3ccccc3C2=O)c(C)c1 [3-Benzoxyloxy-2-(2',4',6'-trimethylphenyl)indone] | 5 (100% mortality) | 5 (100% mortality) | – | 31/40 | – | – | – |
| CCCCC(CC)C(=O)OC1=C(c2ccccc2F)C(=O)c2ccccc21 (stereo not shown) [3-(2-Ethylhexanoyloxy)-2-(2'-fluorophenyl)indone] | 3 (an approximately 50% mortality) | 5 (100% mortality) | 4/20 | – | – | – | – |
| CCCCC(CC)C(=O)OC1=C(c2ccccc2)C(=O)c2ccccc21 (stereo not shown) [3-(2-Ethylhexanoyloxy)-2-phenylindone] | 1 | 1 | 4/20 | – | – | – | – |
| COc1cccc(C(=O)OC2=C(c3c(Cl)cccc3Cl)C(=O)c3ccccc32)c1 [3-(3-Methoxybenzoyloxy)-2-(2',6'-dichlorophenyl)indone] | 5 (100% mortality) | 5 (100% mortality) | – | – | 23/30 | – | – |
